In US9249129B2, “Morpholino substituted urea derivatives as mTOR inhibitors” (CELLZOME LIMITED, priority 2010, dated 2016) one finds IC50 data, which are given here for seven compounds.

Common to all, as to assay: kinobeads assay with mass spectrometry detection of kinases (kinase selectivity profile)
Common to all, as to assay type: binding

Test [1] deals with T1, kinases (kinome) (Homo sapiens, UniProt Q13535).
T1 construct: determined in kinobeads assays with mass spectrometry detection of kinases as described previously; endogenous in cells; host or cells: cell lysate
T1 sequence (Q13535 whole entry): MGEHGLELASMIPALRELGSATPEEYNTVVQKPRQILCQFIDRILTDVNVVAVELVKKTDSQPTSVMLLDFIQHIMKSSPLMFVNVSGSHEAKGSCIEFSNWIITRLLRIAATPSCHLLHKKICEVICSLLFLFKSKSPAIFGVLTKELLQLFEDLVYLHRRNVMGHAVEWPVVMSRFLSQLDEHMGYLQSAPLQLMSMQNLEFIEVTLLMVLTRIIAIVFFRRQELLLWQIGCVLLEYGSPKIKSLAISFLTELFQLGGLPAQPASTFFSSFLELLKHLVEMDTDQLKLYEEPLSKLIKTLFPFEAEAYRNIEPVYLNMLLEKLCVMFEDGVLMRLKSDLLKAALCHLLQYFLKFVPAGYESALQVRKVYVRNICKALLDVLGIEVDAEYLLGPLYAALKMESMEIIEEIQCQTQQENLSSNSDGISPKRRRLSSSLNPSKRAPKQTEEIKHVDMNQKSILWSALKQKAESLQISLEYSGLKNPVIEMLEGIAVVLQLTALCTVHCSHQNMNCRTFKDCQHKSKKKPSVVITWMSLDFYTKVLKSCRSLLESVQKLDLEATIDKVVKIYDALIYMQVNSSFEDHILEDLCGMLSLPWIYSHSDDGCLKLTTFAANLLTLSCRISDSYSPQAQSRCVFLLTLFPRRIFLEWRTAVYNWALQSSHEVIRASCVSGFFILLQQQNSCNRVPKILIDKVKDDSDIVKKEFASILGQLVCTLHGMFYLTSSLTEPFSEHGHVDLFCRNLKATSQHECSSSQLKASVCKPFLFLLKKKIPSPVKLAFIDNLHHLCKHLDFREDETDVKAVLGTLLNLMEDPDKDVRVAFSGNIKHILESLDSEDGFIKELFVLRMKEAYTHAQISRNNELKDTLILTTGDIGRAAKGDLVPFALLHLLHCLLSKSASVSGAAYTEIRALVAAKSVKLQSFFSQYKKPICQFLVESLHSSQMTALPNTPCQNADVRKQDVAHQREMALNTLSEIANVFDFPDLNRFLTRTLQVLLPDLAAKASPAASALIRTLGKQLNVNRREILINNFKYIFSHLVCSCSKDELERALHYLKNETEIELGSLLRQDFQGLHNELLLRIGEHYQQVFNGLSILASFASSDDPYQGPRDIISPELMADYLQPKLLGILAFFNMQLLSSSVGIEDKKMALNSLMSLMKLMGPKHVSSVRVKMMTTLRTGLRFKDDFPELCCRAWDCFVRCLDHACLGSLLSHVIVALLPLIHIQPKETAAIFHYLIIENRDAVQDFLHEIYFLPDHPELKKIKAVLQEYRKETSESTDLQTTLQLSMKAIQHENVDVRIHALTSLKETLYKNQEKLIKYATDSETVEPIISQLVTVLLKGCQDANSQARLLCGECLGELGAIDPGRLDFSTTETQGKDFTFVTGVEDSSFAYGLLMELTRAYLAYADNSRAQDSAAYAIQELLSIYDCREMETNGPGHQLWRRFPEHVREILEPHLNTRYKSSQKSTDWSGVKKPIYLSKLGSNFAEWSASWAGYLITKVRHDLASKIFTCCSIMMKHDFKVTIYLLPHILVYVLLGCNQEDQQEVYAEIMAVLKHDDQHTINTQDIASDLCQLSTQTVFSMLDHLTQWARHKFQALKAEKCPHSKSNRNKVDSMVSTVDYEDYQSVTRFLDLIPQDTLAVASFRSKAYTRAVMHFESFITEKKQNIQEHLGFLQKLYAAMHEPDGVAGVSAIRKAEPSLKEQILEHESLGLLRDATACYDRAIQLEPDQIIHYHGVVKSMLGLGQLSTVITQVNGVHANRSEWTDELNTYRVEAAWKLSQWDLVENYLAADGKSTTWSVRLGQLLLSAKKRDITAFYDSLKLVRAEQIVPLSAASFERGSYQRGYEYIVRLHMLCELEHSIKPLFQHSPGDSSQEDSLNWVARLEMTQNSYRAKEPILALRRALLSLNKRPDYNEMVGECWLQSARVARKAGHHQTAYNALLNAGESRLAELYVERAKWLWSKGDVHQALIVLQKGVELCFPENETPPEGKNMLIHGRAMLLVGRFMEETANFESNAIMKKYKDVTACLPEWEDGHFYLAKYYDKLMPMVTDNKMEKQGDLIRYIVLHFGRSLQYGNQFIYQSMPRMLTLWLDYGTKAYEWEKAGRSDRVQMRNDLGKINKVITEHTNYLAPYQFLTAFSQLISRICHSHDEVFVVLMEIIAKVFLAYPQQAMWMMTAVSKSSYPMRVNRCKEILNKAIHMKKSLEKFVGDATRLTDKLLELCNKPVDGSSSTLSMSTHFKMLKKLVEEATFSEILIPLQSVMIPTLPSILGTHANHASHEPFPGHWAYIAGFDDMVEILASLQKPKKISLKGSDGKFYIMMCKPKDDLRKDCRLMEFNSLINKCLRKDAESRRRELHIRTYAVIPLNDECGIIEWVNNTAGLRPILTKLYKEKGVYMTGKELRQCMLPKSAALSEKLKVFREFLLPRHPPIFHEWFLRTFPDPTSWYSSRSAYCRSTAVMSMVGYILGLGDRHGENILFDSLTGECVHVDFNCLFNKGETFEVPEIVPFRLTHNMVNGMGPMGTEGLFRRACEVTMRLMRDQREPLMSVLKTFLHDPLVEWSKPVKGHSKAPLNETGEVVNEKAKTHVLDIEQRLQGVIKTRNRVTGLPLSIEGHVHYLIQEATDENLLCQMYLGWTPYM
The settings on record: ATR (Atypical), IPI00412298; 0.1 μM ranges. From the text: (§1) The protein kinase complement of the human genome (the kinome) was described previously (Manning et al., 2002. Science 298(5600):1912-1934). Sequence accession numbers are defined by the International Protein Index (IPI) (Kersey et al., 2004. Proteomics 4(7):1985-1988).

In test [2] the target is T2, kinases (kinome) (Homo sapiens, UniProt P37173).
T2 construct: determined in kinobeads assays with mass spectrometry detection of kinases as described previously; endogenous in cells; host or cells: cell lysate
T2 sequence (P37173 23-567): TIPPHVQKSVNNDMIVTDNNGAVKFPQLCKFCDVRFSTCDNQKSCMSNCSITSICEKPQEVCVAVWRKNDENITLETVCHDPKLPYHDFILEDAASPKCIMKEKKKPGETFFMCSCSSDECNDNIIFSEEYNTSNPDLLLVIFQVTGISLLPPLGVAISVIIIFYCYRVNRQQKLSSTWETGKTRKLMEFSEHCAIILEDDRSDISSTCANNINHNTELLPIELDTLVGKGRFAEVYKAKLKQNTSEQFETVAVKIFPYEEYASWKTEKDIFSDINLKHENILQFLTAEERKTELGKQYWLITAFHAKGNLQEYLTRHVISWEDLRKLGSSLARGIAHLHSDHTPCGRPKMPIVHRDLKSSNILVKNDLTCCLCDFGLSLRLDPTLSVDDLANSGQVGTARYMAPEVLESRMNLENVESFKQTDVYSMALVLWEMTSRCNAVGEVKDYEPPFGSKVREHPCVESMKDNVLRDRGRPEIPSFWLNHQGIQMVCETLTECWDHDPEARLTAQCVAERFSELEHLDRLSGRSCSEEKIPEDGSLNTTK
The following applies: TGFbR2 (TKL), IPI00164934.
Text: as §1

For test [3], the target named is T3, kinases (kinome) (Homo sapiens, UniProt Q05655).
T3 construct: determined in kinobeads assays with mass spectrometry detection of kinases as described previously; endogenous in cells; host or cells: cell lysate
The following applies: PKCd (AGC), IPI00329236.
Text: as §1

Test [4] has as its target T4, kinases (kinome) (Homo sapiens, UniProt P36894).
T4 construct: determined in kinobeads assays with mass spectrometry detection of kinases as described previously; endogenous in cells; host or cells: cell lysate
The following applies: BMPR1A (TKL), IPI00005731.
Text: as §1

Test [5] has as its target T5, kinases (kinome) (Homo sapiens, UniProt O94768).
T5 construct: determined in kinobeads assays with mass spectrometry detection of kinases as described previously; endogenous in cells; host or cells: cell lysate
T5 sequence (O94768 1-372): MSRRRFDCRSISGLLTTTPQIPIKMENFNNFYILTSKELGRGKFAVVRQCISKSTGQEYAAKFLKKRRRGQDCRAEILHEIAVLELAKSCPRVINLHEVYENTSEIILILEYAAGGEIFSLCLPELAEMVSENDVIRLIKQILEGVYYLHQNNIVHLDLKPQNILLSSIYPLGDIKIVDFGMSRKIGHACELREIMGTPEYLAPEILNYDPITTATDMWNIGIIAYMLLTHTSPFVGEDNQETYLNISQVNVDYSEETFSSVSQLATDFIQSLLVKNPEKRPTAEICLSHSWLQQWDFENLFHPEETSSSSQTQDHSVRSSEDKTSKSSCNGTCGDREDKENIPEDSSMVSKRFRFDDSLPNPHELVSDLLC
The following applies: DRAK2 (CAMK), IPI00916930.
Text: as §1

Test [6] deals with T6, kinases (kinome) (Homo sapiens, UniProt O15197).
T6 construct: determined in kinobeads assays with mass spectrometry detection of kinases as described previously; endogenous in cells; host or cells: cell lysate
T6 sequence (O15197 32-1021): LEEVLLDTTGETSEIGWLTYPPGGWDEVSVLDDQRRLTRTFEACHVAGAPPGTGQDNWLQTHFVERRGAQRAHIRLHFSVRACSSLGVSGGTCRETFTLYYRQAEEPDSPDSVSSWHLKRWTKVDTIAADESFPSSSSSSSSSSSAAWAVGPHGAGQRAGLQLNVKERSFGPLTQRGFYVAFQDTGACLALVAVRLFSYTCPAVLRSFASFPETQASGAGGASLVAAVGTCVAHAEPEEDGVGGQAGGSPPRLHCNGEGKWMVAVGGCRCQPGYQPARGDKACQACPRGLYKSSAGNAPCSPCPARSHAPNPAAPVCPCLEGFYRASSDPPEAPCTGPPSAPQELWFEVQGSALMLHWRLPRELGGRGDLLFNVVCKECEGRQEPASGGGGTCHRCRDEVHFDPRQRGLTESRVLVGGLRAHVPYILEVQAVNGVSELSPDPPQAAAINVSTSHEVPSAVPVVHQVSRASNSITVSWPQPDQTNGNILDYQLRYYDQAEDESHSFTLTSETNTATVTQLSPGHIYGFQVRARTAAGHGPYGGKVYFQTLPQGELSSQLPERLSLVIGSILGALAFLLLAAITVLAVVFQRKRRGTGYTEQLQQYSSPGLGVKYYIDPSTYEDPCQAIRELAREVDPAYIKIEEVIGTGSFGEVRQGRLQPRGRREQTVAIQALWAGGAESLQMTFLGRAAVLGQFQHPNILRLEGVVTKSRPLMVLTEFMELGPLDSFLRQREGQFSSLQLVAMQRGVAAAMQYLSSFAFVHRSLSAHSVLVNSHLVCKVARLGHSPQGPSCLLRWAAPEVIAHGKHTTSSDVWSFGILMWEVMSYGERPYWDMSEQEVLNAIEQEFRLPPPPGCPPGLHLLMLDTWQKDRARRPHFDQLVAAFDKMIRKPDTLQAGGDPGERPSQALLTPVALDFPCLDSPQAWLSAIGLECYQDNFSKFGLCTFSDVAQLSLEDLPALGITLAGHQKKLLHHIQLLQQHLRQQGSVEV
The following applies: EphB6 (TK), IPI00005222.
Text: as §1

Test [7] addresses T7, kinases (kinome) (Homo sapiens, UniProt P29320).
T7 construct: determined in kinobeads assays with mass spectrometry detection of kinases as described previously; endogenous in cells; host or cells: cell lysate
T7 sequence (P29320 21-983): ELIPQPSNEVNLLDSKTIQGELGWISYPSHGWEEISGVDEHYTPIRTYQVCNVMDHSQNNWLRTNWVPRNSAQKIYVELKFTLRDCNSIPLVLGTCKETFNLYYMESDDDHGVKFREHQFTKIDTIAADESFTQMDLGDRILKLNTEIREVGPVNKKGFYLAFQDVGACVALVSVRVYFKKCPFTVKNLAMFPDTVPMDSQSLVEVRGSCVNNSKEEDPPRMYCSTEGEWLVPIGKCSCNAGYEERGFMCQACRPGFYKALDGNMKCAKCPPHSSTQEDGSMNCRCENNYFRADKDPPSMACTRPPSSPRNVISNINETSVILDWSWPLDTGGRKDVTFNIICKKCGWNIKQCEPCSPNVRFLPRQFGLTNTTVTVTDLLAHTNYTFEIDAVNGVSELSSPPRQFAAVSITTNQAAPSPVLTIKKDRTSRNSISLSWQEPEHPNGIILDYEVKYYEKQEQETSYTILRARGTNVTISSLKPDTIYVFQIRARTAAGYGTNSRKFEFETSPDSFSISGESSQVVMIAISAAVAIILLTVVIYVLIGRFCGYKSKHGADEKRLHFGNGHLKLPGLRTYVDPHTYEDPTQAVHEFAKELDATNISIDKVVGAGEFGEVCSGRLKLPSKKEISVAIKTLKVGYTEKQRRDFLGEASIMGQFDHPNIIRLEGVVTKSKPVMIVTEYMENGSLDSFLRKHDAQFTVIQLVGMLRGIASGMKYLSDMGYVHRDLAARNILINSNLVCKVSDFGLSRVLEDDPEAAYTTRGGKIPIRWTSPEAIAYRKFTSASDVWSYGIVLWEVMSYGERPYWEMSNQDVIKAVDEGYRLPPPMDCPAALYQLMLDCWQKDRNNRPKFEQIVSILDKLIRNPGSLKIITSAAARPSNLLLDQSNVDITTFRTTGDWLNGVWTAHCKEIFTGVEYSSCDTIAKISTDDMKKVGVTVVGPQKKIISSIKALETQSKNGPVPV
The settings on record: EphA3 (TK), IPI00298105.
Text: as §1

Test [8] has as its target T8, kinases (kinome) (Homo sapiens, UniProt P10721).
T8 construct: determined in kinobeads assays with mass spectrometry detection of kinases as described previously; endogenous in cells; host or cells: cell lysate
The following applies: KIT (TK), IPI00022296.
Text: as §1

T4 sequence (P36894 24-532): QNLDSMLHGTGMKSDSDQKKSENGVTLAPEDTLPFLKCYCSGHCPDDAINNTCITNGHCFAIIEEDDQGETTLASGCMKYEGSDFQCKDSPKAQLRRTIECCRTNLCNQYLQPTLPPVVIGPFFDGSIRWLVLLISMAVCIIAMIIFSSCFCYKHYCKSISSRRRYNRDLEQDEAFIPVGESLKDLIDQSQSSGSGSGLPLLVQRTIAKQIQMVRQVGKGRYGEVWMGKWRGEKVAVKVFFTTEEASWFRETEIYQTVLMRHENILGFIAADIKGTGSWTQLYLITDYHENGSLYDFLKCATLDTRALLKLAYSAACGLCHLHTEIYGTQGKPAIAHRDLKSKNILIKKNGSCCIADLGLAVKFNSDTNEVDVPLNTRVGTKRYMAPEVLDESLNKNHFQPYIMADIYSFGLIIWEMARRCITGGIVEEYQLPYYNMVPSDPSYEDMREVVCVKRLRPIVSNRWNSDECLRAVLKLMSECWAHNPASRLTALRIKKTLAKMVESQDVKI
T8 sequence (P10721 26-976): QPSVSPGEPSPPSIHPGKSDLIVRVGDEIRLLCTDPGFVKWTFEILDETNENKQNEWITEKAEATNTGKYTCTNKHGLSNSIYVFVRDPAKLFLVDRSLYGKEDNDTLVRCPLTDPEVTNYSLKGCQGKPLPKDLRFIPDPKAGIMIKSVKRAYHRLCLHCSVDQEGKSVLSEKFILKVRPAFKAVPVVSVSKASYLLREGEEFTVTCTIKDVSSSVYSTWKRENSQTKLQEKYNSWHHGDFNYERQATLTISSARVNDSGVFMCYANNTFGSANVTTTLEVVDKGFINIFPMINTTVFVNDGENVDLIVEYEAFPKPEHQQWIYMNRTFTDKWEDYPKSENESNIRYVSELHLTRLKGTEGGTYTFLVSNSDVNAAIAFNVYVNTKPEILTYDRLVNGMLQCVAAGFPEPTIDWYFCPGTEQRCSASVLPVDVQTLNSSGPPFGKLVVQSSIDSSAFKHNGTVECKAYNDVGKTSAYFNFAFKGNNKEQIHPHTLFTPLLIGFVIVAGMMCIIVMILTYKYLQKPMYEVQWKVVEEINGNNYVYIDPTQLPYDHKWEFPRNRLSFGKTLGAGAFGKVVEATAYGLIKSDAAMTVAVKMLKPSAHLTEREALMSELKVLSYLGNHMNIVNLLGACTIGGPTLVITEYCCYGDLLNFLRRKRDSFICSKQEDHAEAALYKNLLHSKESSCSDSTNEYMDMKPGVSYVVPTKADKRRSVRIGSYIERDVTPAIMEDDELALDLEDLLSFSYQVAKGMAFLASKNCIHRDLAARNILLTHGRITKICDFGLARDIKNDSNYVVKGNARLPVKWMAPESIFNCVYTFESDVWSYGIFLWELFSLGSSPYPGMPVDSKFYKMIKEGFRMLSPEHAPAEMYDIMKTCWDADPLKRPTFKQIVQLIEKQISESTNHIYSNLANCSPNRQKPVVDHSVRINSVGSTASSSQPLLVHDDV

Usually IC50 stands for the midpoint of a concentration-inhibition curve. Low values mean greater potency, high ones weaker potency. On to `C[C@H]1COCCN1c1nc(-c2ccc(NC(=O)N[C@H]3CCC[C@@H]3O)cc2)cc(-c2cc(F)ccc2S(C)(=O)=O)n1` [Example 76, 1-(4-(6-(5-fluoro-2-(methylsulfonyl)phenyl)-2-((S)-3-methylmorpholino)pyrimidin-4-yl)phenyl)-3-((1S,2S)-2-hydroxycyclopentyl)urea], for which the IC50 in test [1], in test [2], in test [3] and in test [4] was above 10 µM in each case.
`C[C@H]1COCCN1c1nc(-c2ccc(NC(=O)NC3CC3)cc2)cc(-c2ccccc2S(C)(=O)=O)n1` [Example 4, (S)-1-cyclopropyl-3-(4-(2-(3-methylmorpholino)-6-(2-(methylsulfonyl)phenyl)pyrimidin-4-yl)phenyl)urea]: the IC50 in test [5], in test [1], in test [2], in test [6], in test [3] and in test [7] was above 10 µM throughout.
For `C[C@H]1COCCN1c1cc(-c2ccccc2S(C)(=O)=O)nc(-c2ccc(NC(=O)NC3CC3)cc2)n1` [Example 6, (S)-1-cyclopropyl-3-(4-(4-(3-methylmorpholino)-6-(2-(methylsulfonyl)phenyl)pyrimidin-2-yl)phenyl)urea], the IC50 in test [2], in test [6] and in test [4] was above 10 µM each time.
For the compound `C[C@H]1COCCN1c1cc(-c2ccccn2)nc(-c2ccc(NC(=O)NCCO)cc2)n1` [Example 43, (S)-1-(2-hydroxyethyl)-3-(4-(4-(3-methylmorpholino)-6-(pyridin-2-yl)pyrimidin-2-yl)phenyl)urea], the IC50 in test [1], in test [3], in test [8] and in test [7] was above 10 µM each time.
Regarding `C[C@H]1COCCN1c1nc(-c2ccc(NC(=O)NC3CC3)cc2)cc(-c2cccnc2S(C)(=O)=O)n1` [Example 46, (S)-1-cyclopropyl-3-(4-(2-(3-methylmorpholino)-6-(2-(methylsulfonyl)pyridin-3-yl)pyrimidin-4-yl)phenyl)urea], the IC50 in test [5], in test [1], in test [2], in test [6], in test [3] and in test [4] was above 10 µM each time. Moreover, the IC50 in test [8] and in test [7] was above 10 µM throughout.
Regarding `CCNC(=O)Nc1ccc(-c2cc(-c3ccccc3C#N)nc(N3CCOC[C@@H]3C)n2)cc1` [Example 8, (S)-1-(4-(6-(2-cyanophenyl)-2-(3-methylmorpholino)pyrimidin-4-yl)phenyl)-3-ethylurea], the IC50 in test [4] and in test [7] was above 10 µM in each case.
Take `C[C@H]1COCCN1c1nc(-c2ccc(NC(=O)NC3CC3)cc2)cc(-c2cc(F)ccc2S(C)(=O)=O)n1` [Example 40, (S)-1-cyclopropyl-3-(4-(6-(5-fluoro-2-(methylsulfonyl)phenyl)-2-(3-methylmorpholino)pyrimidin-4-yl)phenyl)urea]: the IC50 was above 10 µM in test [5]; 1.1 to 1.2 µM in test [1]; above 10 µM in test [2]; above 10 µM in test [6]; above 10 µM in test [3]; above 10 µM in test [4]. Besides, the IC50 in test [8] and in test [7] was above 10 µM each time.
